IC50 data for 22 molecules are collected here from patent US9458113B2 (Boehringer Ingelheim International GmbH, priority 2014, dated 2016).

Each structure is given as a SMILES string.

In the experiment the target is Human neutrophil elastase (Homo sapiens (Human), UniProt P08246). Put plainly: Human Neutrophil Elastase Assay. Type of experiment: biochemical. The settings on record: substrate MeOSuc-Ala-Ala-Pro-Val-AMC 250 μM, pH 7.5.
Chain of Human neutrophil elastase (P08246 30-247): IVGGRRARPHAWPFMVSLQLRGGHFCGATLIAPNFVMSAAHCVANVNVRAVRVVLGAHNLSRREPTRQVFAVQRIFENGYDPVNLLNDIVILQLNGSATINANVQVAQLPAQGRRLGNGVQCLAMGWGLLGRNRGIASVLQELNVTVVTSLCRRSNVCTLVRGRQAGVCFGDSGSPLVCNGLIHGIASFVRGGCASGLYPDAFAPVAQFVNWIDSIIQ
Method: The following buffers were used: Compound buffer: 100 mM Tris, 500 mM NaCl, adjusted to pH 7.5; Assay buffer: 100 mM Tris, 500 mM NaCl, adjusted to pH 7.5, containing 0.01% BSA.
Assay conditions: Test compounds were prediluted in DMSO and subsequently in compound buffer (5% DMSO final). […] After inactivation of the enzyme, fluorescence intensities were measured at 380 nm excitation and 460 nm emission wavelengths.
Each plate contains wells with a high value control (DMSO+enzyme+substrate) and wells with a low value control (DMSO+inactivated enzyme+substrate). IC50 values were estimated using a sigmoidal concentration response curve with variable slope. Means of low values were taken as 0%, means of high values as 100%.
Consider `CN1C(=O)N(c2cccc(C(F)(F)F)c2)C2=C(C(=O)CCC2)C1c1ccc(C#N)cc1C(N)=O` (single isomer, unassigned) [Example 7a, 5-Cyano-2-[3-methyl-2,5-dioxo-1-(3-trifluoromethyl-phenyl)-1,2,3,4,5,6,7,8-octahydro-quinazolin-4-yl]-benzamide], for which the IC50 was below 1 nM. The result for `CN1C(=O)N(c2cccc(C(F)(F)F)c2)C2=C(C(=O)CC2)C1c1ccc(C#N)cc1C(N)=O` (stereo not shown) [Example 1, 5-Cyano-2-[3-methyl-2,5-dioxo-1-(3-trifluoromethyl-phenyl)-2,3,4,5,6,7-hexahydro-1H-cyclopentapyrimidin-4-yl]-benzamide] reads 5.3 nM; that for `CCNC(=O)c1cc(C#N)ccc1C1C2=C(CCC2=O)N(c2cccc(C(F)(F)F)c2)C(=O)N1C` (stereo not shown) [Example 1.2], 5.5 nM. For `CN(C)C(=O)c1cc(C#N)ccc1C1C2=C(CCC2=O)N(c2cccc(C(F)(F)F)c2)C(=O)N1C` (stereo not shown) [Example 1.3] the value was 5.4 nM; for `C#CCNC(=O)c1cc(C#N)ccc1C1C2=C(CCC2=O)N(c2cccc(C(F)(F)F)c2)C(=O)N1C` (stereo not shown) [Example 1.4], 3.7 nM. Take `CN1C(=O)N(c2cccc(C(F)(F)F)c2)C2=C(C(=O)CC2)C1c1ccc(C#N)cc1C(=O)NCC#N` (stereo not shown) [Example 1.5]: the half-inhibitory concentration (IC50) was found to be 3.1 nM.

For the molecule `CN1C(=O)N(c2cccc(C(F)(F)F)c2)C2=C(C(=O)CC2)C1c1ccc(C#N)cc1C(=O)NC1CC1` (stereo not shown) [Example 1.6], the concentration for half-maximal inhibition (IC50) stood at 6.3 nM. `CN1C(=O)N(c2cccc(C(F)(F)F)c2)C2=C(C(=O)CC2)C1c1ccc(C#N)cc1C(=O)N1CCC1` (stereo not shown) [Example 1.7] came in with an IC50 of 2.2 nM. For `CN1C(=O)N(c2cccc(C(F)(F)F)c2)C2=C(C(=O)CC2)C1c1ccc(C#N)cc1C(=O)NCCO` (stereo not shown) [Example 1.8] the value was 5.7 nM. As for `CN1C(=O)N(c2cccc(C(F)(F)F)c2)C2=C(C(=O)CC2)C1c1ccc(C#N)cc1C(=O)NCCF` (stereo not shown) [Example 1.9], the concentration for half-maximal inhibition (IC50) came out at 5.5 nM. The result for `CN1C(=O)N(c2cccc(C(F)(F)F)c2)C2=C(C(=O)CC2)C1c1ccc(C#N)cc1C(=O)N1CCCC1` (stereo not shown) [Example 1.10] reads 3.4 nM; that for `CN1C(=O)N(c2cccc(C(F)(F)F)c2)C2=C(C(=O)CC2)C1c1ccc(C#N)cc1C(=O)N1CC(O)C1` (stereo not shown) [Example 1.11], 2.5 nM; that for `CN1C(=O)N(c2cccc(C(F)(F)F)c2)C2=C(C(=O)CC2)C1c1ccc(C#N)cc1C(=O)NC1COC1` (stereo not shown) [Example 1.12], 5.3 nM. With `CN(CCO)C(=O)c1cc(C#N)ccc1C1C2=C(CCC2=O)N(c2cccc(C(F)(F)F)c2)C(=O)N1C` (stereo not shown) [Example 1.13], the IC50 turned out to be 2.9 nM. For `COCCNC(=O)c1cc(C#N)ccc1C1C2=C(CCC2=O)N(c2cccc(C(F)(F)F)c2)C(=O)N1C` (stereo not shown) [Example 1.14] the value was 6.5 nM; for `CN1C(=O)N(c2cccc(C(F)(F)F)c2)C2=C(C(=O)CC2)C1c1ccc(C#N)cc1C(=O)NCCCO` (stereo not shown) [Example 1.15], 5 nM; for `CN1C(=O)N(c2cccc(C(F)(F)F)c2)C2=C(C(=O)CC2)C1c1ccc(C#N)cc1C(=O)NCC(F)F` (stereo not shown) [Example 1.16], 6 nM. On to `CN1C(=O)N(c2cccc(C(F)(F)F)c2)C2=C(C(=O)CC2)C1c1ccc(C#N)cc1C(=O)NC1CCOC1` (stereo not shown) [Example 1.18], for which the IC50 is 6.9 nM.

The molecule `CN1C(=O)N(c2cccc(C(F)(F)F)c2)C2=C(C(=O)CC2)C1c1ccc(C#N)cc1C(=O)NCC(C)(C)O` (stereo not shown) [Example 1.19] registered an IC50 of 9.5 nM. For `COCCCNC(=O)c1cc(C#N)ccc1C1C2=C(CCC2=O)N(c2cccc(C(F)(F)F)c2)C(=O)N1C` (stereo not shown) [Example 1.20] the value was 5.7 nM; for `CN1C(=O)N(c2cccc(C(F)(F)F)c2)C2=C(C(=O)CC2)C1c1ccc(C#N)cc1C(=O)NCC(F)(F)F` (stereo not shown) [Example 1.21], 7.1 nM.

In the case of `CN1C(=O)N(c2cccc(C(F)(F)F)c2)C2=C(C(=O)CC2)C1c1ccc(C#N)cc1C(=O)N1CCC(O)CC1` (stereo not shown) [Example 1.22], the IC50 was 10.3 nM.

The IC50 is the point on the concentration scale where inhibition reaches its midpoint. A higher IC50 goes with weaker potency.
